The values below come from patent US10213429B2, “Imidazo-pyrazinyl derivatives useful as soluble guanylate cyclase activators” (Merck Sharp & Dohme Corp., priority 2015, dated 2019).

This experiment addresses T1, sGC α1/β1 heterodimer (Homo sapiens, UniProt Q02108+Q02153).
T1 construct: expressed in transfected cells; host or cells: CHO-K1 (clone #7, CHO-K1/sGC)
T1 sequence (Q02108 1-690): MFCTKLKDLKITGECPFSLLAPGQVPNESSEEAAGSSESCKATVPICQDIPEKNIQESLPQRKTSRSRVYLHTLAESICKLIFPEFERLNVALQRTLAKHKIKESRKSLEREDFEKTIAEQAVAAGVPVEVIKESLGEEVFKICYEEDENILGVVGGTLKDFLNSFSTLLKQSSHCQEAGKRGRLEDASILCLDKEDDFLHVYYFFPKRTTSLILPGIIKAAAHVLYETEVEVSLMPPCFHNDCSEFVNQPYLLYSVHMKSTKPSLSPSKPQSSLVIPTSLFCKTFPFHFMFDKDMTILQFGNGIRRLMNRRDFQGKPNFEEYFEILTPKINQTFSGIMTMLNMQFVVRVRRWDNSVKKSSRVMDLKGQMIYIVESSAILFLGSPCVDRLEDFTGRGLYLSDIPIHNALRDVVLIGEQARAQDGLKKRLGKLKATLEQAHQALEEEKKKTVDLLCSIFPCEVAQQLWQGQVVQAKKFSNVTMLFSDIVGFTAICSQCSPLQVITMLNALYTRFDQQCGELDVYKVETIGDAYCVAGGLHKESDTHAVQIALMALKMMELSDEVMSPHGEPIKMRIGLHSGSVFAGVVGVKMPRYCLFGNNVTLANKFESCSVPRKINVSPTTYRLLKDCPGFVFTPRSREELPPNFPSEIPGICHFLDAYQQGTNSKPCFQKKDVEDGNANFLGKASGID
T1 sequence (Q02153 1-619): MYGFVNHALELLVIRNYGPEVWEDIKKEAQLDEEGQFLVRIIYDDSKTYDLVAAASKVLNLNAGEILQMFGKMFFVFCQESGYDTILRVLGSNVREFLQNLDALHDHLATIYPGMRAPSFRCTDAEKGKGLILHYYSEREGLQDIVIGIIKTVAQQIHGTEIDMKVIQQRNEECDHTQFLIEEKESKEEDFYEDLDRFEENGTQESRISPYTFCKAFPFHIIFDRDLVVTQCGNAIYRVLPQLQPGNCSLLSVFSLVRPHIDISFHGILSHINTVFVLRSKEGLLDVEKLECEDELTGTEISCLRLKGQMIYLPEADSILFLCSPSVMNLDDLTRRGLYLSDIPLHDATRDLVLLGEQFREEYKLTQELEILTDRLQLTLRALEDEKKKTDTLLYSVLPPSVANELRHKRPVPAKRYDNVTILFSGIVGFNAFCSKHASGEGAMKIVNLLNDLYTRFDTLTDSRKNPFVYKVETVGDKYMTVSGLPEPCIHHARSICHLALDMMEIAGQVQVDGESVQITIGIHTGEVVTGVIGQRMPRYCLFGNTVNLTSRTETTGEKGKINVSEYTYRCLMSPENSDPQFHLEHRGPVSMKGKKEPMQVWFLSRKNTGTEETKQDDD
In words: Cell-Based sGC Functional Assay (CASA Assay), cGMP by HTRF in CHO-K1/sGC cells. To be noted: for Emax: CHO-K1, percent activation relative to maximum cGMP production of Compound A (= 100%), read-out: % Act.; for EC50: cGMP production, 1 hr at 37° C., 4P fit, presence or absence of 1 μM DETA-NO not given, read-out: IP (nM) (inflection point). The text has this:
Biological Assay 1: Cell-Based sGC Functional Assay (CASA Assay)
sGC is a heme-containing enzyme that converts GTP to secondary messenger cGMP. Increases in cGMP levels affect several physiological processes including vasorelaxation through multiple downstream pathways. […] Heme-dependent activators (HDAs) preferentially activate sGC containing a ferrous heme group. To determine the effect of sGC activators on enzyme activity, the CASA assay was developed to monitor the generation of cGMP in a cell line that stably expresses the heterodimeric sGC protein.
A CHO-K1 cell line stably expressing the sGC α1/β1 heterodimer was generated using a standard transfection protocol. CHO-K1 cells were transfected with plasmids pIREShyghsGCα1 and pIRESneo-hsGCβ1 simultaneously using FUGENE reagent. Clones that stably express both subunits were selected with hygromycin and neomycin for ˜2 weeks. Clone #7 was chosen for the assay and was designated CHO-K1/sGC. CHO-K1/sGC cells were maintained in F-K12 medium containing 10% heat-inactivated Fetal Bovine Serum (FBS), 100 μg/mL penicillin/streptomycin, 0.5 mg/mL hygromycin and 0.25 mg/mL G418. The cells were then cryopreserved in LN2. On the day of the assay, cells were thawed and resuspended in EBSS Assay Buffer (Sigma, E3024) supplemented with 5 mM MgCl2, 10 mM HEPES (4-(2-hydroxyethyl)piperazine-1-ethanesulfonic acid) and 0.05% BSA (bovine serum albumin) (EAB) and cell density was then adjusted to 4×10^5/mL with EAB. IBMX (3-isobutyl-1-methylxanthin, 0.5 mM) was added to inhibit degradation of cGMP. Compounds were diluted from DMSO stock solutions and added to the assay at a final DMSO concentration of 2.5%. Cells were incubated with compounds in the presence and absence of 1 μM of Diethylenetriamine/nitric oxide adduct (DETA-NO; Sigma, 17018) for 1 hr at 37° C. At the end of the incubation period, the reaction was terminated and the cells were lysed with the detection reagents from Cisbio Kits. The level of intracellular cGMP was determined using an HTRF-based assay kit (CisBio, 62GM2PEC), which detects the displacement of a fluorescence labeled cGMP from its specific antibody. The cGMP produced by test compounds was directly compared to the maximum cGMP production (this value was set to equal 100% activation.) of the published sGC-HDA Compound A:
[drawing 175] (Example 1 in WO 2010/065275, published Jun. 10, 2010). The test compounds' activities were then expressed as a percentage of Compound A, the standard in every experiment. This percent activation was calculated either in the presence or absence of DETA-NO which was then plotted. IP and maximum fold induction was derived using ADA analysis software for 4P fit.
The compounds in the Examples of the instant invention had inflection points (IP) less than or equal to 10 μM and most less than or equal to about 1 μM.
A general note: In TR-FRET formats the signal depends on donor and acceptor labels being close together.

For `O=C1Nc2nc(-c3cn4ccnc4c(Cc4ccc(F)cc4)n3)ncc2C1(C(=O)NC1CC1)C1CC1` (single isomer, unassigned) [Example 68A, N,5-dicyclopropyl-2-(8-(4-fluorobenzyl)imidazo[1,2-a]pyrazin-6-yl)-6-oxo-6,7-dihydro-5H-pyrrolo[2,3-d]pyrimidine-5-carboxamide], the Emax came out at 138% and the EC50 was found to be 254 nM.

As to `CCCCc1nc(-c2ncc3c(n2)NC(=O)C3(C)c2ccc(F)cn2)cn2cc(C)nc12` (stereo not drawn) [Example 91B, 2-(8-Butyl-2-methylimidazo[1,2-a]pyrazin-6-yl)-5-(5-fluoropyridin-2-yl)-5-methyl-5H-pyrrolo[2,3-d]pyrimidin-6(7H)-one], the Emax turned out to be 117% and the EC50 was 330 nM.

With `CCc1nc(-c2cn3ccnc3c(CCC(F)(F)C(F)(F)F)n2)nc2c1C(C)(c1ccc(F)cc1)C(=O)N2` (stereo not drawn) [Example 76A, 4-ethyl-5-(4-fluorophenyl)-5-methyl-2-(8-(3,3,4,4,4-pentafluorobutyl)imidazo [1,2-a]pyrazin-6-yl)-5H-pyrrolo[2,3-d]pyrimidin-6(7H)-one], the Emax was determined as 130% and the EC50 came out at 95 nM.

`CCCCc1nc(-c2nc(O)c3c(n2)NC(=O)C3(c2ccc(Cl)cn2)C2CC2)cn2ccnc12` (stereo not drawn) [Example 25A, 2-(8-butylimidazo[1,2-a]pyrazin-6-yl)-5-(5-chloropyridin-2-yl)-5-cyclopropyl-4-hydroxy-5H-pyrrolo[2,3-d]pyrimidin-6(7H)-one]: the Emax stood at 153% and the EC50 was determined as 240 nM.

Turning to `CCCCc1nc(-c2nc(O)c3c(n2)NC(=O)C3(c2ccc(F)c(F)c2)C2CC2)cn2ccnc12` (stereo not drawn) [Example 19A, 2-(8-butylimidazo[1,2-a]pyrazin-6-yl)-5-cyclopropyl-5-(3,4-difluorophenyl)-4-hydroxy-5H-pyrrolo[2,3-d]pyrimidin-6(7H)-one], the Emax was 128% and the EC50 stood at 107 nM.

For the compound `O=C1Nc2nc(-c3cn4ccnc4c(CCC(F)(F)C(F)(F)F)n3)ncc2C1(c1ccc(F)cc1)C1CC1` (stereo not drawn) [Example 11B, 5-cyclopropyl-5-(4-fluorophenyl)-2-(8-(3,3,4,4,4-pentafluorobutyl)imidazo[1,2-a]pyrazin-6-yl)-5H-pyrrolo[2,3-d]pyrimidin-6(7H)-one], the Emax was 88% and the EC50 was 66 nM.

For `O=C1Nc2nc(-c3cn4ccnc4c(CCCC(F)(F)F)n3)ncc2C1(c1ccc(Cl)cc1F)C1CC1` (stereo not drawn) [Example 46A, 5-(4-chloro-2-fluorophenyl)-5-cyclopropyl-2-(8-(4,4,4-trifluorobutyl)imidazo[1,2-a]pyrazin-6-yl)-5H-pyrrolo[2,3-d]pyrimidin-6(7H)-one], the Emax stood at 135% and the EC50 was found to be 10 nM.

As to `O=C1Nc2nc(-c3cn4ccnc4c(CCC(F)(F)C(F)(F)F)n3)ncc2C1(c1ccc(F)cn1)C1CC1` (stereo not drawn) [Example 53A, 5-cyclopropyl-5-(5-fluoropyridin-2-yl)-2-(8-(3,3,4,4,4-pentafluorobutyl)imidazo[1,2-a]pyrazin-6-yl)-5H-pyrrolo[2,3-d]pyrimidin-6(7H)-one], the Emax came to 125% and the EC50 was found to be 220 nM.

In the case of `CCCCc1nc(-c2ncc3c(n2)NC(=O)C3(c2ccc(OC(F)(F)F)cc2)C2CC2)cn2ccnc12` (stereo not drawn) [Example 51A, 2-(8-butylimidazo[1,2-a]pyrazin-6-yl)-5-cyclopropyl-5-(4-(trifluoromethoxy)phenyl)-5H-pyrrolo[2,3-d]pyrimidin-6(7H)-one], the Emax worked out at 98% and the EC50 was determined as 56 nM.

Regarding `CC1(c2ccc(Cl)cc2)C(=O)Nc2nc(-c3cn4ccnc4c(CCC(F)(F)F)n3)ncc21` (stereo not drawn) [Example 61A, 5-(4-chlorophenyl)-5-methyl-2-(8-(3,3,3-trifluoropropyl)imidazo[1,2-a]pyrazin-6-yl)-5H-pyrrolo[2,3-d]pyrimidin-6(7H)-one], the Emax turned out to be 104% and the EC50 amounted to 401 nM.

On to `CC1(c2ccc(Cl)cn2)C(=O)Nc2nc(-c3cn4ccnc4c(Cc4ccc(F)cc4)n3)nc(O)c21` (stereo not drawn) [Example 16A, 5-(5-chloropyridin-2-yl)-2-(8-(4-fluorobenzyl)imidazo[1,2-a]pyrazin-6-yl)-4-hydroxy-5-methyl-5H-pyrrolo[2,3-d]pyrimidin-6(7H)-one], for which the Emax was 111% and the EC50 is 45 nM.

On to `CCCOc1nc(-c2ncc3c(n2)NC(=O)C3(C)c2ccc(F)cc2)cn2ccnc12` (stereo not drawn) [Example 92A, 5-(4-Fluorophenyl)-5-methyl-2-(8-propoxyimidazo[1,2-a]pyrazin-6-yl)-5H-pyrrolo[2,3-d]pyrimidin-6(7H)-one], for which the Emax is 83% and the EC50 was determined as 282 nM.

With `CC1(c2ccc(Cl)cc2)C(=O)Nc2nc(-c3cn4ccnc4cn3)nc(-c3ccccc3)c21` (stereo not drawn) [Example 84A, 5-(4-Chlorophenyl)-2-(imidazo[1,2-a]pyrazin-6-yl)-5-methyl-4-phenyl-5H-pyrrolo[2,3-d]pyrimidin-6(7H)-one], the Emax came to 127% and the EC50 was 105 nM.

On to `O=C1Nc2nc(-c3cn4ccnc4c(CCCC(F)(F)F)n3)nc(O)c2C1(c1ccc(Cl)c(F)c1)C1CC1` (stereo not drawn) [Example 22A, 5-(4-chloro-3-fluorophenyl)-5-cyclopropyl-4-hydroxy-2-(8-(4,4,4-trifluorobutyl)imidazo[1,2-a]pyrazin-6-yl)-5H-pyrrolo[2,3-d]pyrimidin-6(7H)-one], for which the Emax stood at 126% and the EC50 stood at 438 nM.

Take `CCCc1nc(-c2ncc3c(n2)NC(=O)C3(C)c2ccc(Cl)cn2)cn2ccnc12` (stereo not drawn) [Example 57A, 5-(5-chloropyridin-2-yl)-5-methyl-2-(8-propylimidazo[1,2-a]pyrazin-6-yl)-5H-pyrrolo[2,3-d]pyrimidin-6(7H)-one]: the Emax was determined as 90% and the EC50 is 981 nM.
